Assay results as given in ChEMBL document CHEMBL4507268 (2021).

Key:
Conditions in all cases: Compound concentration 1.0 uM
Homo sapiens = species: Homo sapiens
[1] = target: Cyclin-dependent kinase 5/CDK5 activator 1 (Homo sapiens) (UniProt Q00535+Q15078)
[2] = target: CDK7/Cyclin H/MNAT1 (Homo sapiens) (UniProt P51946+P50613+P51948)
[3] = target: Casein kinase II subunit alpha' (Homo sapiens) (UniProt P19784)
[4] = target: Ephrin type-A receptor 5 (Homo sapiens) (UniProt P54756)
[5] = target: Fibroblast growth factor receptor 2 (Homo sapiens) (UniProt P21802)
[6] = target: T1, Rhodopsin kinase GRK7 (Homo sapiens) (UniProt Q8WTQ7)
T1 sequence (whole entry): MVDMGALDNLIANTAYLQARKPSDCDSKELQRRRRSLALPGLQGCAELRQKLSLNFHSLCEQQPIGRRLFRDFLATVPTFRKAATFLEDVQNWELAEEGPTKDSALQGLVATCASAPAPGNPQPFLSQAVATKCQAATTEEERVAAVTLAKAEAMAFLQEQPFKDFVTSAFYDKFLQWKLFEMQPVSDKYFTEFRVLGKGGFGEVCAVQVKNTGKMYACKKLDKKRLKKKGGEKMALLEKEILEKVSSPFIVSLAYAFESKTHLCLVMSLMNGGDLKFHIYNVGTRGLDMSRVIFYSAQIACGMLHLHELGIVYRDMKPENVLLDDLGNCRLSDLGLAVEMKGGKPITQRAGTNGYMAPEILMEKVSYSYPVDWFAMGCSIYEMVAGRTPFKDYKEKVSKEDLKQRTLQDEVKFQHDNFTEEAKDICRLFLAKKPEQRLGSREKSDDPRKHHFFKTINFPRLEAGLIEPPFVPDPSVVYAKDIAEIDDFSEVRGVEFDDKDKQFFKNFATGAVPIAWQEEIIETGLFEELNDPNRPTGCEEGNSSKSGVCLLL

[7] = target: T2, Serine/threonine-protein kinase Nek1 (Homo sapiens) (UniProt Q96PY6)
T2 sequence (whole entry): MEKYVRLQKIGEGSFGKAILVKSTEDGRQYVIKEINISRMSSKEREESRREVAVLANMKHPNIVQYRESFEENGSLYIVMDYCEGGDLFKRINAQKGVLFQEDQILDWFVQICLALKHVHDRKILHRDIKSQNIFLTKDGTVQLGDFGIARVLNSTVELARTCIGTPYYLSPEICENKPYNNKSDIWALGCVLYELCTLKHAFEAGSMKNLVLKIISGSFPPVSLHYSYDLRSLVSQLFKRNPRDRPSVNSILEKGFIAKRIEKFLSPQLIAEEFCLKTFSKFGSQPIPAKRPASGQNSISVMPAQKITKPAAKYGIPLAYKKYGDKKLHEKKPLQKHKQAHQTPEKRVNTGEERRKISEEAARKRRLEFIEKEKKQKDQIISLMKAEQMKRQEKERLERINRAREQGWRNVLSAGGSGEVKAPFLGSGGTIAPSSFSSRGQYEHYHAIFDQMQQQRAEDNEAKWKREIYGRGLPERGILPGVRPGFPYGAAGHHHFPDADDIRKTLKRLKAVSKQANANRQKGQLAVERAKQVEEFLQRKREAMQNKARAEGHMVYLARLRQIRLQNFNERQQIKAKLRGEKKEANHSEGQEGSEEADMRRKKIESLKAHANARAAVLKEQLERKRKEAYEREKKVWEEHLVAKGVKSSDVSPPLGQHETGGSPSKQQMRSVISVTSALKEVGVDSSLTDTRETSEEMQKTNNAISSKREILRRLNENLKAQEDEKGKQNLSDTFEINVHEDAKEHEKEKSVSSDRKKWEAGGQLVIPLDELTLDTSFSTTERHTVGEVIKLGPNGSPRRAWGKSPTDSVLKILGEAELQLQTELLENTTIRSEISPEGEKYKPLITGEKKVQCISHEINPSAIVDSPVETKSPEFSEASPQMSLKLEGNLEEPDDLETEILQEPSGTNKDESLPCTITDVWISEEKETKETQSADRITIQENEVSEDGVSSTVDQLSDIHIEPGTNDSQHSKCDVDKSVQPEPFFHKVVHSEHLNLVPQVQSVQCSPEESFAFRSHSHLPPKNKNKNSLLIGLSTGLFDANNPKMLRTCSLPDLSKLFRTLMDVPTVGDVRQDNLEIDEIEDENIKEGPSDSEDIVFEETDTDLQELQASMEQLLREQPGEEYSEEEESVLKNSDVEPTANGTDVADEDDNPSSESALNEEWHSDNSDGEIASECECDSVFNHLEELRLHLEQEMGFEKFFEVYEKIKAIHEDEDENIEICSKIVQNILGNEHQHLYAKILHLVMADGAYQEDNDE

[8] = target: Serine/threonine-protein kinase Nek7 (Homo sapiens) (UniProt Q8TDX7)
[9] = target: Eukaryotic translation initiation factor 2-alpha kinase 3 (Homo sapiens) (UniProt Q9NZJ5)
[10] = target: T3, TGF-beta receptor type-1 (Homo sapiens) (UniProt P36897)
T3 sequence (whole entry): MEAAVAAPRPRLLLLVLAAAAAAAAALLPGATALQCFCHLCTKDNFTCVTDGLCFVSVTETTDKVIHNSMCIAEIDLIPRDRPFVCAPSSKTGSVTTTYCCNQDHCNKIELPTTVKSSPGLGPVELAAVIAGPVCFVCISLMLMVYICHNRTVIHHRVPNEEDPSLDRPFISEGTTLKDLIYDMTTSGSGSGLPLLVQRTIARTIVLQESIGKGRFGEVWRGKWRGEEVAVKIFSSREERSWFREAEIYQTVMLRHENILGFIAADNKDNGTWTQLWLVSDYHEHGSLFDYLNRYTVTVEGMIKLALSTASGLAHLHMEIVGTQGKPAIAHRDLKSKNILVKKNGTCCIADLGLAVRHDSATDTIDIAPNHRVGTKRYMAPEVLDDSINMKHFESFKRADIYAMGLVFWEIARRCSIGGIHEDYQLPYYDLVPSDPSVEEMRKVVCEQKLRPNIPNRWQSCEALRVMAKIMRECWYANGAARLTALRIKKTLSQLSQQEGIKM

[11] = target: TRAF2 and NCK-interacting protein kinase (Homo sapiens) (UniProt Q9UKE5)
[12] = target: Phosphatidylinositol 4,5-bisphosphate 3-kinase catalytic subunit gamma isoform (Homo sapiens) (UniProt P48736)

Measured: % residual kinase activity

Eukaryotic translation initiation factor 2-alpha kinase 3 (Homo sapiens), sequence (Q9NZJ5 whole entry): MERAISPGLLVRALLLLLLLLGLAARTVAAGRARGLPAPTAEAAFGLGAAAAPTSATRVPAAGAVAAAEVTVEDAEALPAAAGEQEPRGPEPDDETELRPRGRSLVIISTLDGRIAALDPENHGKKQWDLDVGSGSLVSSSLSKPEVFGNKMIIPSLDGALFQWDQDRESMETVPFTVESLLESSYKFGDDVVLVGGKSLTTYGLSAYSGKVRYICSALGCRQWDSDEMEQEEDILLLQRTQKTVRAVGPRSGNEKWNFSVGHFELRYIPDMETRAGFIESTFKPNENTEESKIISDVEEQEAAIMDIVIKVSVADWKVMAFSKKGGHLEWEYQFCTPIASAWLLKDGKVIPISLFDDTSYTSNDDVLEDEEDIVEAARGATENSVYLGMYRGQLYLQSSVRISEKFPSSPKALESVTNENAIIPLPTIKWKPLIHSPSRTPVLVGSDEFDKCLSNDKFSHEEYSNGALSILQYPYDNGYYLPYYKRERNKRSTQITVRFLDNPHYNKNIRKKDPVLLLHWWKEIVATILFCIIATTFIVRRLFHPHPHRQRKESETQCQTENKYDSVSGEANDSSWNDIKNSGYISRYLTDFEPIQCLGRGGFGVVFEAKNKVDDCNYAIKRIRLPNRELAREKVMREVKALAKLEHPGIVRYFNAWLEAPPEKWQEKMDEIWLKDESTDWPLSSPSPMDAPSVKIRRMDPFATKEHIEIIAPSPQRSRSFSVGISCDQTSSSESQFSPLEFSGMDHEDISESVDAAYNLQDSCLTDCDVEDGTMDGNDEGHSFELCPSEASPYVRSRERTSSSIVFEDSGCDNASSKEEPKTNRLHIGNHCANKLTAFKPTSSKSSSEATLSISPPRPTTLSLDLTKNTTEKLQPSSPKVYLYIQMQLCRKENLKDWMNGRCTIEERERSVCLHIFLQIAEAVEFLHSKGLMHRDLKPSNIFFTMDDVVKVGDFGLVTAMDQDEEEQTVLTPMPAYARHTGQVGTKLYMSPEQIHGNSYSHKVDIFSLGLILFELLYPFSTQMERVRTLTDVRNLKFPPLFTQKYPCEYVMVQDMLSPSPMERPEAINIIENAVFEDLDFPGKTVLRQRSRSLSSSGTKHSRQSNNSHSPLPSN
Phosphatidylinositol 4,5-bisphosphate 3-kinase catalytic subunit gamma isoform (Homo sapiens), sequence (P48736 whole entry, looked up, canonical isoform): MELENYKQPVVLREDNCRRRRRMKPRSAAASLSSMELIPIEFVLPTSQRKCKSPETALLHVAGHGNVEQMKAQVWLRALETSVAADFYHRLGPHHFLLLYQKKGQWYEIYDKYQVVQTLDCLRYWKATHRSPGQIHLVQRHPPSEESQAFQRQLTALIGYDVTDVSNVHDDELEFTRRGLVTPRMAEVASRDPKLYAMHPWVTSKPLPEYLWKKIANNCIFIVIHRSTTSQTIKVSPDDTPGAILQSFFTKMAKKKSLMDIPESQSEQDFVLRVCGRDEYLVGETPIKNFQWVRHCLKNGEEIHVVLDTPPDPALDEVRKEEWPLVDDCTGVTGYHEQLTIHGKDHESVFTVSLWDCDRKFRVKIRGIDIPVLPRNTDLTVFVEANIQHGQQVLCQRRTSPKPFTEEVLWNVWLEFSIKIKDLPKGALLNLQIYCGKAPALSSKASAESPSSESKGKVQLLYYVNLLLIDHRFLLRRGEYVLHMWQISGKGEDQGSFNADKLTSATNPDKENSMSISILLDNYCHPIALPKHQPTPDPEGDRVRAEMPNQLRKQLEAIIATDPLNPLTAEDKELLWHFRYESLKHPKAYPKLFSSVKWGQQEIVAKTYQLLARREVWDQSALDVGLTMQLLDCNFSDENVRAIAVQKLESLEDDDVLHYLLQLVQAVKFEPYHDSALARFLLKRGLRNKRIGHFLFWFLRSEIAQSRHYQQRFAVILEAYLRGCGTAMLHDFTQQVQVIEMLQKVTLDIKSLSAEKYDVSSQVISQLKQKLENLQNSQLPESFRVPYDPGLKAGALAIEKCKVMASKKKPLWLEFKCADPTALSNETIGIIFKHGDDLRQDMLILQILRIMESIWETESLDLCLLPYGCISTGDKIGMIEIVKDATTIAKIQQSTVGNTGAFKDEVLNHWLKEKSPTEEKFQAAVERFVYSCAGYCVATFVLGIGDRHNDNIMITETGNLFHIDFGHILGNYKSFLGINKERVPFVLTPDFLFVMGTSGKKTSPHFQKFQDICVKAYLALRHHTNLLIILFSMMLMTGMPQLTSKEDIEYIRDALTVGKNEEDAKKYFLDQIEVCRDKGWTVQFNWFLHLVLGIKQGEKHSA
Fibroblast growth factor receptor 2 (Homo sapiens), sequence (P21802 22-821 limits assumed): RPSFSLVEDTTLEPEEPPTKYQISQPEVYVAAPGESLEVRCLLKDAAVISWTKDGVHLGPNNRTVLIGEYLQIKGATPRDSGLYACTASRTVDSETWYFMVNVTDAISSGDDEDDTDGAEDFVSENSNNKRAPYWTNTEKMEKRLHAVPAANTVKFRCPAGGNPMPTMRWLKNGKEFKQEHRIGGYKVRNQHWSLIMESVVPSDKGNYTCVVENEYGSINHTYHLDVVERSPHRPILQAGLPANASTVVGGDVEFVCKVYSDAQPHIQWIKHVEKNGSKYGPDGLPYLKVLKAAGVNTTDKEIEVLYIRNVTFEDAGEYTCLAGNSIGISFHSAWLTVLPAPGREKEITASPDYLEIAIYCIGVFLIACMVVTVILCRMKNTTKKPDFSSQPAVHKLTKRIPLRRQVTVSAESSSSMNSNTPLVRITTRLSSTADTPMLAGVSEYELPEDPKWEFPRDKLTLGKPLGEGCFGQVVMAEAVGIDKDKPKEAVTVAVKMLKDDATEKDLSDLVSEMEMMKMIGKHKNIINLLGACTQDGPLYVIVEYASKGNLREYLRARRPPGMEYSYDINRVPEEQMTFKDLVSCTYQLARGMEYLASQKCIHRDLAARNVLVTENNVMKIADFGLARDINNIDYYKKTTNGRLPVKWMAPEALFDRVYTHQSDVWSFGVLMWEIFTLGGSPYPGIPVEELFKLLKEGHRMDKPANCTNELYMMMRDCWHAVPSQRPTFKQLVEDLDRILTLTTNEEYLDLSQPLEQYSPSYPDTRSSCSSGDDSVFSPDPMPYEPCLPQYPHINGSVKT
Ephrin type-A receptor 5 (Homo sapiens), sequence (P54756 whole entry): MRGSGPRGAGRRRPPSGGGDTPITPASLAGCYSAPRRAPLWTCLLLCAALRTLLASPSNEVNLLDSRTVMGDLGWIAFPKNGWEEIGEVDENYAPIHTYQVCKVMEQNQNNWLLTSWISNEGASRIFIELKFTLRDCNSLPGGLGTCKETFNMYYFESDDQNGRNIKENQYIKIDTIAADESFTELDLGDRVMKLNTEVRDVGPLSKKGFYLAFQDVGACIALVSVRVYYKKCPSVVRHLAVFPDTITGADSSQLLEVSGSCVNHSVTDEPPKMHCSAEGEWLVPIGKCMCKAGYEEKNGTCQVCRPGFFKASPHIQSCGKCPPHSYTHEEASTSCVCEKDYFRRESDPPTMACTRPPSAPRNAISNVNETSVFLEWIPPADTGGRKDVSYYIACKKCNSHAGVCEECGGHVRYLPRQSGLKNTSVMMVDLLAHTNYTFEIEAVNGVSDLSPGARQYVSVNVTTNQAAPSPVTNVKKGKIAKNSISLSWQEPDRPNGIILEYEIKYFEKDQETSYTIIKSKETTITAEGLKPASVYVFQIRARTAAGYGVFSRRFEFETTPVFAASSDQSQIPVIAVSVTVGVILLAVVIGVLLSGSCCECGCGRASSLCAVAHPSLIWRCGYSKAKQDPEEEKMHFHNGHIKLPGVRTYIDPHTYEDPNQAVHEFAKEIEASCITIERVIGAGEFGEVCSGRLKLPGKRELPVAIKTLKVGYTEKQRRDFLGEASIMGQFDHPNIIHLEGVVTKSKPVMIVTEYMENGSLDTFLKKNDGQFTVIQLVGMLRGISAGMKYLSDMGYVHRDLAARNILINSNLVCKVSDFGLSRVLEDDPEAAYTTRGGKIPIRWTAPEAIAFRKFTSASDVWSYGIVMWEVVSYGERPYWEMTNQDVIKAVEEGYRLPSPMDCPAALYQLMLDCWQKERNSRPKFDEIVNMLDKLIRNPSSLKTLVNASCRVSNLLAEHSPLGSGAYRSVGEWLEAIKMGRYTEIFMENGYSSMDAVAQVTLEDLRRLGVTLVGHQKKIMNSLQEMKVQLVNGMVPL
Casein kinase II subunit alpha' (Homo sapiens), sequence (P19784 whole entry, looked up): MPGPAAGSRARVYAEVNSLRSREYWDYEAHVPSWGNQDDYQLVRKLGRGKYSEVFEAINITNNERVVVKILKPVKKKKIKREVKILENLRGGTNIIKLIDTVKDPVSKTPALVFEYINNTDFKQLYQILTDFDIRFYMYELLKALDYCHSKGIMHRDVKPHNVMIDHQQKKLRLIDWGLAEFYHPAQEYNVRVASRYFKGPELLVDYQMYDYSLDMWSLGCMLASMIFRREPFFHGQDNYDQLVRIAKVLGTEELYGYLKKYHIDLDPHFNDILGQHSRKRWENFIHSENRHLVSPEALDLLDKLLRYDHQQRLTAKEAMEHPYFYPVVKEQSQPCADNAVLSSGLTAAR
Serine/threonine-protein kinase Nek7 (Homo sapiens), sequence (Q8TDX7 whole entry, looked up): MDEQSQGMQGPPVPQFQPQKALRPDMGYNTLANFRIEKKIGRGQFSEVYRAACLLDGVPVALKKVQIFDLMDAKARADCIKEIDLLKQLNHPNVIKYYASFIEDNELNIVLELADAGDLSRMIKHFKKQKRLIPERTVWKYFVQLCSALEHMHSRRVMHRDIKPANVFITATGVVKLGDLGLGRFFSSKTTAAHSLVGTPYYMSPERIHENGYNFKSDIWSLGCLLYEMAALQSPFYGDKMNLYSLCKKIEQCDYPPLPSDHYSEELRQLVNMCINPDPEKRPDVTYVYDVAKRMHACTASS

CN1CCN(c2cnc3c(C4CCN(C(=O)c5ccc(OC(F)(F)F)cc5N)CC4)ncnc3c2)CC1 [BAY-885]
inactive: Homo sapiens 112% | [1] 106% | [2] 99% | [3] 94% | [4] 57% | [5] 107% | [6] 101% | [7] 98% | [8] 106% | [9] 100% | [10] 81% | [11] 89% | [12] 100%
